# Oligonucleotides are written 5' to 3', each unit as a sugar letter and its base; * is a phosphorothioate linkage, no mark a phosphodiester; rarer units and linkages stand in square brackets, end groups in braces. Plain capitals give the bases only. d = 2'-deoxy (DNA); r = 2'-OH (RNA)
# Molecular target: MRFAP1
# Assay: reporter assay of Huesken 2005
# Details: siRNA
# Note: test concentration or dose not given here.
row,Substance,normalised inhibition (eCFP-eYFP dual reporter) [%]
1,sense rUrCrGrUrGrCrGrGrCrGrGrArUrArGrArGrArAdTdT / antisense rUrUrCrUrCrUrArUrCrCrGrCrCrGrCrArCrGrAdGdC,87.2
2,sense rUrCrUrGrCrUrGrCrCrCrGrUrCrArUrCrCrArCdTdT / antisense rGrUrGrGrArUrGrArCrGrGrGrCrArGrCrArGrAdAdA,35.3
3,sense rUrCrUrGrGrUrUrGrArGrUrGrArUrGrGrCrGrAdTdT / antisense rUrCrGrCrCrArUrCrArCrUrCrArArCrCrArGrAdAdT,75.7
4,sense rUrCrUrUrCrGrUrGrArGrCrCrGrUrCrCrGrCrGdTdT / antisense rCrGrCrGrGrArCrGrGrCrUrCrArCrGrArArGrAdCdT,35.4
5,sense rUrCrUrUrGrGrGrUrGrArCrCrUrGrArUrArGrCdTdT / antisense rGrCrUrArUrCrArGrGrUrCrArCrCrCrArArGrAdAdA,45.6
6,sense rUrCrUrUrUrUrCrCrCrCrUrCrUrGrUrCrUrUrCdTdT / antisense rGrArArGrArCrArGrArGrGrGrGrArArArArGrAdAdA,35.3
7,sense rUrGrArUrGrArCrCrUrGrGrGrArGrArArGrGrGdTdT / antisense rCrCrCrUrUrCrUrCrCrCrArGrGrUrCrArUrCrAdGdT,33.2
8,sense rUrGrCrArGrCrArArUrGrGrCrArGrArArGrArAdTdT / antisense rUrUrCrUrUrCrUrGrCrCrArUrUrGrCrUrGrCrAdTdG,72.9
9,sense rUrGrCrArGrCrUrCrGrUrGrCrGrGrCrGrGrArUdTdT / antisense rArUrCrCrGrCrCrGrCrArCrGrArGrCrUrGrCrAdCdC,33.7
10,sense rUrGrGrArCrArArUrArUrGrCrUrGrArUrCrCrAdTdT / antisense rUrGrGrArUrCrArGrCrArUrArUrUrGrUrCrCrAdTdC,91.5
11,sense rUrGrGrArGrGrUrGrCrUrGrGrArGrCrCrGrGrAdTdT / antisense rUrCrCrGrGrCrUrCrCrArGrCrArCrCrUrCrCrAdCdC,69.1
12,sense rUrGrUrUrCrGrUrCrUrGrUrArCrArArGrUrUrGdTdT / antisense rCrArArCrUrUrGrUrArCrArGrArCrGrArArCrAdAdG,84.8
13,sense rUrGrUrUrCrUrCrArCrUrGrArCrArCrUrArCrGdTdT / antisense rCrGrUrArGrUrGrUrCrArGrUrGrArGrArArCrAdGdA,68.9
14,sense rUrGrUrUrGrGrGrArCrArGrCrCrUrArArCrUrCdTdT / antisense rGrArGrUrUrArGrGrCrUrGrUrCrCrCrArArCrAdAdA,85.6
15,sense rUrUrArCrCrArUrGrUrUrGrArArArArCrArArAdTdT / antisense rUrUrUrGrUrUrUrUrCrArArCrArUrGrGrUrArAdGdG,91.3
16,sense rUrUrCrUrCrArCrUrGrArCrArCrUrArCrGrUrUdTdT / antisense rArArCrGrUrArGrUrGrUrCrArGrUrGrArGrArAdCdA,72.2
17,sense rUrUrGrArUrUrUrGrGrArArArArUrGrCrGrCrUdTdT / antisense rArGrCrGrCrArUrUrUrUrCrCrArArArUrCrArAdAdG,68.1
18,sense rUrUrGrGrArArArArUrGrCrGrCrUrCrArCrArUdTdT / antisense rArUrGrUrGrArGrCrGrCrArUrUrUrUrCrCrArAdAdT,38.7
19,sense rUrUrGrGrCrUrGrArCrArUrGrArCrArCrCrCrUdTdT / antisense rArGrGrGrUrGrUrCrArUrGrUrCrArGrCrCrArAdTdC,65.4
20,sense rUrUrGrUrUrCrGrUrCrUrGrUrArCrArArGrUrUdTdT / antisense rArArCrUrUrGrUrArCrArGrArCrGrArArCrArAdGdA,55.5

# — the OligoGym collection
